The results in this text go back to patent publication US20230167073A1 (Teijin Pharma Limited, priority 2020, published 2023).

The assay deals with T1, Human TRPC6 (Homo sapiens, UniProt Q9Y210).
T1 construct: expressed in transfected cells
T1 sequence (Q9Y210 1-931): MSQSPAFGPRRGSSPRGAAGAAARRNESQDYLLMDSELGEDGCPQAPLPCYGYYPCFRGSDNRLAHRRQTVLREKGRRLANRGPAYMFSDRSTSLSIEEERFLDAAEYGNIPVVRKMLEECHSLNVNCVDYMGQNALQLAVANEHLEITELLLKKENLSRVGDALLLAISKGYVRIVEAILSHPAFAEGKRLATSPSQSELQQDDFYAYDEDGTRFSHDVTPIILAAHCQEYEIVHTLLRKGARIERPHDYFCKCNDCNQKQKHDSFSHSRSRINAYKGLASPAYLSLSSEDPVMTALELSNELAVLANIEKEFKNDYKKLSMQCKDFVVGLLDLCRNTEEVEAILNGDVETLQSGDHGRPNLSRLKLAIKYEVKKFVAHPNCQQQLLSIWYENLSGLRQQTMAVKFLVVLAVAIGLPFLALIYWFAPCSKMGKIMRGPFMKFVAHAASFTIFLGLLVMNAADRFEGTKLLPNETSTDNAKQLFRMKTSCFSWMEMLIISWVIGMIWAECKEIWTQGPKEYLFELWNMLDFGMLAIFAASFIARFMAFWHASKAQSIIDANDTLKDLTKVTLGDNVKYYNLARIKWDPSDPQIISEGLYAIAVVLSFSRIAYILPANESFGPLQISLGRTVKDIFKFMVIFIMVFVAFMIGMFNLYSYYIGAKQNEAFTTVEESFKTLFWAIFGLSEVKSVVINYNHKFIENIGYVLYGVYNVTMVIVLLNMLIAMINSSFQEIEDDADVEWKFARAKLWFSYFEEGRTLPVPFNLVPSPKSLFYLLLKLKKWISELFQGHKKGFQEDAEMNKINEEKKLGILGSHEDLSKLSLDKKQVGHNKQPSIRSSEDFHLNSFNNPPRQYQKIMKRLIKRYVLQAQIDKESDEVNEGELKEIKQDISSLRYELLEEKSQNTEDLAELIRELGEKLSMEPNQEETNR
Description: Evaluation of TRPC6 channel inhibitory activity (1), FLIPR Calcium 5 Assay Kit, OAG stimulation (Compound Nos. 1-1293). The class given is cell-based. The following applies: Human TRPC6 stably-expressing cells, OAG 30 μM, FLIPR Calcium 5 Assay Kit; read-out: Inhibitory activity (pIC50 class) (converted). The essentials: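 Readout is pIC50 from four-parameter logistic fitting of inhibition of the OAG-evoked (30 μM final) fluorescence calcium signal. Human TRPC6 stable cells are dye-loaded with probenecid, and compound is applied 20 min ahead of agonist.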
As for `Cc1nc(Oc2cc(C#N)ccc2-c2ncc([C@H](O)CN)cn2)cc(-c2ccccc2)n1` [compound 526, 4-[5-[(1S)-2-amino-1-hydroxyethyl]pyrimidin-2-yl]-3-(2-methyl-6-phenylpyrimidin-4-yl)oxybenzonitrile], the IC50 was below 10 nM.

For `N#Cc1ccc(-c2ncc(CN)cn2)c(Oc2ccc(N3CCCC3)nc2)c1` [compound 751, 4-[5-(aminomethyl)pyrimidin-2-yl]-3-(6-pyrrolidin-1-ylpyridin-3-yl)oxybenzonitrile], the IC50 is above 1000 nM.

Take `CN(C)c1cc(Oc2cc(C#N)ccc2-c2ccc(CCN)cn2)n(C)n1` [compound 543, 4-[5-(2-aminoethyl)pyridin-2-yl]-3-[5-(dimethylamino)-2-methylpyrazol-3-yl]oxybenzonitrile]: the IC50 is below 10 nM.

As to `Cn1nc(-c2ccccn2)cc1Oc1cc(C#N)ccc1-c1ncc(CNC2(C)COC2)cn1` [compound 665, 4-[5-[[(3-methyloxetan-3-yl)amino]methyl]pyrimidin-2-yl]-3-(2-methyl-5-pyridin-2-ylpyrazol-3-yl)oxybenzonitrile], the IC50 was above 1000 nM.

Regarding `Cn1ccc(-c2cc(Oc3cc(C#N)ccc3-c3ncc(CN)cn3)n(C)n2)n1` [compound 946, 4-[5-(aminomethyl)pyrimidin-2-yl]-3-[2-methyl-5-(1-methylpyrazol-3-yl)pyrazol-3-yl]oxybenzonitrile], the IC50 was 10 to 1000 nM.

On to `Cc1ncc(N2CCOCC2)cc1Oc1cc(C#N)ccc1-c1ncc(CCN)cn1` [compound 919, 4-[5-(2-aminoethyl)pyrimidin-2-yl]-3-(2-methyl-5-morpholin-4-ylpyridin-3-yl)oxybenzonitrile], for which the IC50 was 10 to 1000 nM.

In the case of `Cn1nc(C2CC2)cc1Oc1cc(C#N)ccc1-c1ccc(CN2CCOCC2)cn1` [compound 424, 3-(5-cyclopropyl-2-methylpyrazol-3-yl)oxy-4-[5-(morpholin-4-ylmethyl)pyridin-2-yl]benzonitrile], the IC50 was above 1000 nM.

`Cc1ccc(-c2cn(Cc3cc(C#N)ccc3-c3ccc(CCN)cn3)c(C)n2)cc1` [compound 1153, 4-[5-(2-aminoethyl)pyridin-2-yl]-3-[[2-methyl-4-(4-methylphenyl)imidazol-1-yl]methyl]benzonitrile]: the IC50 is below 10 nM.

Regarding `N#Cc1ccc(-c2ncc(CCN)cn2)c(C(=O)c2cnn(C3CCOCC3)c2)c1` [compound 1041, 4-[5-(2-aminoethyl)pyrimidin-2-yl]-3-[1-(oxan-4-yl)pyrazole-4-carbonyl]benzonitrile], the IC50 is 10 to 1000 nM.

Take `Cc1nc(Oc2cc(C#N)ccc2-c2ncc(CCN)cn2)cc(OC(C)C)n1` [compound 848, 4-[5-(2-aminoethyl)pyrimidin-2-yl]-3-(2-methyl-6-propan-2-yloxypyrimidin-4-yl)oxybenzonitrile]: the IC50 was below 10 nM.

For `Cc1nc(Oc2cc(C#N)ccc2-n2cc([C@@H](O)CN)cn2)cc(-c2cccc(C(F)(F)F)c2)n1` [compound 353, 4-[4-[(1R)-2-amino-1-hydroxyethyl]pyrazol-1-yl]-3-[2-methyl-6-[3-(trifluoromethyl)phenyl]pyrimidin-4-yl]oxybenzonitrile], the IC50 is 10 to 1000 nM.

As for `Cc1nc(-c2ccc(C(F)(F)F)cc2)cn1Cc1cc(C#N)ccc1-c1ccc(CCN)cc1` [compound 1125, 4-[4-(2-aminoethyl)phenyl]-3-[[2-methyl-4-[4-(trifluoromethyl)phenyl]imidazol-1-yl]methyl]benzonitrile], the IC50 was above 1000 nM.

As to `Cc1nc(Oc2cc(C#N)ccc2-c2ncc(CCN)cn2)cc(N2CCCCC2)n1` [compound 447, 4-[5-(2-aminoethyl)pyrimidin-2-yl]-3-(2-methyl-6-piperidin-1-ylpyrimidin-4-yl)oxybenzonitrile], the IC50 was below 10 nM.

In the case of `CC(C)c1cc(Oc2cc(F)ccc2-c2ncc(CCN)cn2)n(C)n1` [compound 1013, 2-[2-[4-fluoro-2-(2-methyl-5-propan-2-ylpyrazol-3-yl)oxyphenyl]pyrimidin-5-yl]ethanamine], the IC50 is below 10 nM.

On to `Cc1cc(Oc2cc(C#N)ccc2-c2ccc([C@H](O)CN)cn2)cc(-c2ncc(C)s2)n1` [compound 605, 4-[5-[(1S)-2-amino-1-hydroxyethyl]pyridin-2-yl]-3-[2-methyl-6-(5-methyl-1,3-thiazol-2-yl)pyridin-4-yl]oxybenzonitrile], for which the IC50 is 10 to 1000 nM.

Consider `CC(C)c1cc(Oc2cc(C#N)ccc2-c2ccc(CN)cn2)n(C)n1` [compound 362, 4-[5-(aminomethyl)pyridin-2-yl]-3-(2-methyl-5-propan-2-ylpyrazol-3-yl)oxybenzonitrile], for which the IC50 was below 10 nM.

As to `N#Cc1ccc(-c2ncc(CCN)cn2)c(Sc2nnc(N3CCCCC3)s2)c1` [compound 1270, 4-[5-(2-aminoethyl)pyrimidin-2-yl]-3-[(5-piperidin-1-yl-1,3,4-thiadiazol-2-yl)sulfanyl]benzonitrile], the IC50 was 10 to 1000 nM.

With `Cc1nc(Oc2cc(C#N)ccc2-n2cc([C@@H](O)CN)cn2)cc(N2CCC(F)(F)C2)n1` [Compound 252, 4-[4-[(1R)-2-amino-1-hydroxyethyl]pyrazol-1-yl]-3-[6-(3,3-difluoropyrrolidin-1-yl)-2-methylpyrimidin-4-yl]oxybenzonitrile], the IC50 was above 1000 nM.

For the compound `Cc1nc(Oc2cc(C#N)ccc2-c2ncc(CN)cn2)cc(OC(C)C)n1` [compound 896, 4-[5-(aminomethyl)pyrimidin-2-yl]-3-(2-methyl-6-propan-2-yloxypyrimidin-4-yl)oxybenzonitrile], the IC50 was 10 to 1000 nM.

Consider `Cc1nc(Oc2cc(C#N)ccc2-c2ccc(C(C)CN)cc2)cc(N2CCOCC2)n1` (centres unmarked) [Compound 62, 4-[4-(1-aminopropan-2-yl)phenyl]-3-(2-methyl-6-morpholin-4-ylpyrimidin-4-yl)oxybenzonitrile], for which the IC50 is below 10 nM.

`Cc1nc(Oc2cc(C#N)ccc2-c2nc(C)c(C(O)CN)s2)cc(N2CCOCC2)n1` (centres unmarked) [Compound 129, 4-[5-(2-amino-1-hydroxyethyl)-4-methyl-1,3-thiazol-2-yl]-3-(2-methyl-6-morpholin-4-ylpyrimidin-4-yl)oxybenzonitrile]: the IC50 is above 1000 nM.

With `N#Cc1ccc(-c2ncc(CN)cn2)c(Oc2cc(Cl)nnc2N2CCCCC2)c1` [compound 816, 4-[5-(aminomethyl)pyrimidin-2-yl]-3-(6-chloro-3-piperidin-1-ylpyridazin-4-yl)oxybenzonitrile], the IC50 is above 1000 nM.

On to `Cc1nc(Oc2cc(C#N)ccc2-c2ccc(C(O)CN)c(CC#N)c2)cc(N2CCOCC2)n1` (centres unmarked) [Compound 158, 4-[4-(2-amino-1-hydroxyethyl)-3-(cyanomethyl)phenyl]-3-(2-methyl-6-morpholin-4-ylpyrimidin-4-yl)oxybenzonitrile], for which the IC50 is 10 to 1000 nM.

`CCOc1cc(Oc2cc(C#N)ccc2-c2ccc([C@H](O)CN)cn2)n(C)n1` [compound 399, 4-[5-[(1S)-2-amino-1-hydroxyethyl]pyridin-2-yl]-3-(5-ethoxy-2-methylpyrazol-3-yl)oxybenzonitrile]: the IC50 is below 10 nM.

As to `CNc1cc(C(=O)c2cc(C#N)ccc2-c2ccc(CCN)cn2)n(C)n1` [compound 1075, 4-[5-(2-aminoethyl)pyridin-2-yl]-3-[2-methyl-5-(methylamino)pyrazole-3-carbonyl]benzonitrile], the IC50 was below 10 nM.

For the compound `Cn1nc(C2CCCO2)cc1Oc1cc(C#N)ccc1-c1ccc(CCN)cn1` (centres unmarked) [compound 484, 4-[5-(2-aminoethyl)pyridin-2-yl]-3-[2-methyl-5-(oxolan-2-yl)pyrazol-3-yl]oxybenzonitrile], the IC50 was below 10 nM.

For `Cn1nc(N2CCCCC2)cc1C(=O)c1cc(C#N)ccc1-c1ncc(CCN)cn1` [compound 1062, 4-[5-(2-aminoethyl)pyrimidin-2-yl]-3-(2-methyl-5-piperidin-1-ylpyrazole-3-carbonyl)benzonitrile], the IC50 is below 10 nM.

Turning to `Cc1nc(Sc2cc(C#N)ccc2-c2ncc(CN)cn2)cc(N(C)C)n1` [compound 1263, 4-[5-(aminomethyl)pyrimidin-2-yl]-3-[6-(dimethylamino)-2-methylpyrimidin-4-yl]sulfanylbenzonitrile], the IC50 was above 1000 nM.

For the compound `CCc1nn(CC(C)C)cc1Oc1cc(C#N)ccc1-c1ncc(CCN)cn1` [compound 953, 4-[5-(2-aminoethyl)pyrimidin-2-yl]-3-[3-ethyl-1-(2-methylpropyl)pyrazol-4-yl]oxybenzonitrile], the IC50 was below 10 nM.
